This is an account of results in article PMC3724450 (Nature communications, 2013).

This experiment relates to HCC4017. As to the kind of experiment: Cell viability assay, patient matched pair. The following applies: patient matched cancer vs normal lines.

`COC(=O)CNC(=O)C(=O)OC` [D1070, dimethyloxalylglycine]: the “selectivity for cancer vs. normal patient matched cells” value is “only five-fold selectivity for cancer”.
